Experimental data as given in patent publication US20230312587A1, “PTERIDINONE COMPOUNDS AND USES THEREOF” (Vertex Pharmaceutical Incorporated, priority 2018, published 2023).
Where two headings read alike, the source gives them in different places.

Experiments:
[1] = tested on: non-small cell lung cancer (NSCLC) adenocarcinoma line D33966; test: In vivo efficacy, NSCLC patient derived xenograft OD33966; set-up: species or system nu/nu mice; conditions: Mus musculus, NSCLC PDX OD33966, oral, read-out: % TGI; for inhibition in vivo at 100 mg/kg: 100 mpk qd
Experimental: Female immune deficient mice (Charles River, 4-6 wks age) were anesthetized with Ketamine-Xylazine (140 mg/kg-14 mg/kg ip) and shaved. Puralube eye ointment was applied to the eyes to prevent desiccation of the corneas. Betadine and 70% ethanol was applied to the shaved location to sterilize the skin at the location of the incision. The animals were placed in a biosafety cabinet for the duration of the surgery. Using scissors, an 8 to 10 mm incision was made in the lateral flank of the skin. A tumor fragment weighing between 50 and 150 mg was placed under the skin at the incision site using forceps, and staples were used to close the incision. The staples were removed 5 to 7 days after surgery. Starting approximately two weeks after implantation, animals were weighed, and tumors were measured using caliper twice weekly. Tumor volume was calculated using the formula: volume=length×width^2×0.52.
Compound administration began when xenografts reached approximately 100-300 mm3 and continued until control xenografts reached […] of the animal's body weight. Test compounds were administered orally by gastric gavage. Percent tumor growth inhibition (TG) was calculated on the indicated treatment day. Percent TGI is defined as: [1−(del T/del C)]×100%, where del T is the final minus initial average volumes of the treated group, and del C is the final minus initial average volumes of the control group. […] The tested compounds were administered orally. Vehicle control consisted of either 0.5% methylcellulose/0.1% sodium lauryl sulfate or 20% captisol. Tumor volumes were determined by caliper measurement twice a week.

[2] = target: Plk1 (Homo sapiens (Human), UniProt P53350); test: PLK1 inhibition assay (radioactive-phosphate incorporation); type: biochemical; conditions: Ki(app), read-out: PLK1 - 33P.ENZ - CB 10 Ki
Plk1, sequence (P53350 whole entry, species assumed): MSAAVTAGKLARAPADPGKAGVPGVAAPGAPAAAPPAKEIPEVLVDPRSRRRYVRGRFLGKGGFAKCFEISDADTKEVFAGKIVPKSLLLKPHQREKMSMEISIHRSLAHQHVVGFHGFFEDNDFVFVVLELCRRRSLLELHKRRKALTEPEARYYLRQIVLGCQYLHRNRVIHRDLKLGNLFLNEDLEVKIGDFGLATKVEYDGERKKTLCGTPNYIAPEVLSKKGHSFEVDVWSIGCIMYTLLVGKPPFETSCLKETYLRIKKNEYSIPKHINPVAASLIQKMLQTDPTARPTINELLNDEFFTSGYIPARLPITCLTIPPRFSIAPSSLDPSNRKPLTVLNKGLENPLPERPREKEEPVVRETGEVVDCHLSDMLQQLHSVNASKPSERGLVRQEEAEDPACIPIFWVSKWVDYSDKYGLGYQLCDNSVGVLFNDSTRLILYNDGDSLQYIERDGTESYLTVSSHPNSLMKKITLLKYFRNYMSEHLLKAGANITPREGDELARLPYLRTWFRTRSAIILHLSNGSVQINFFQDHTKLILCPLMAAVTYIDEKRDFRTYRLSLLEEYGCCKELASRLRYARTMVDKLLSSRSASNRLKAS
In short: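 Radioactive-phosphate incorporation with 15 nM Plk1 and 9 µM Sam68 substrate, 20 µM [γ-33P]ATP, in 25 mM HEPES pH 7.5, 10 mM MgCl2, 25 mM NaCl, 2 mM DTT, 1.5% DMSO, room temperature, 45 min. Stopped with TCA/cold ATP, filtered, scintillation counted. Ki(app) from non-linear regression of background-corrected initial rates.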

[3] = tested on: HepG2 WFS1 KO; test: In vitro cell viability (CellTiter-Glo), HepG2 WFS1 KO; type: cell-based; conditions: for IC50: Homo sapiens, 96 hours
Source text: A double cleavage strategy was employed to remove large fragments from the WFS1 locus. Suitable target sites in WFS1 exon 8 were first selected using CRISPR design software to rank suitable target sites and computationally predict off-target sites for each intended target. Six top guide RNA sequences are identified and screened for activity using the Surveyor Mutation Detection Kit (Integrated DNA Technologies). Then, the best 2 guide RNAs were cloned into GeneArt OFP CRISPR nuclease vectors (Thermofisher, Cat #A21174) separately and co-transfected into HepG2 cells using nucleofection (4D Nucleofector X, Lonza). Cells were sorted by FACS 48 hrs later to enrich for the OFP positive cell population. The OFP positive cell population were plated into 96-well plates at 0.5-5 cells/well to isolate clonal cell lines. After allowing cells to expand for 2-3 weeks, plates were inspected for presence of colonies. When colonies became more than 70% confluent, they were dissociated with trypsin and were further expanded. Cell clones with homozygous double cleavage of WFS1 exon 8 were detected with PCR and confirmed with DNA sequencing.
HEK293 cells containing empty pCLPCx vector (HEK293 empty), HEK293 cells stably over-expression WFS1 (HEK293 WFS1), HepG2, and HepG2 cells where WFS1 was depleted via CRISPR/Cas9 (HepG2 WFS1 KO) cells were plated into 96-well black plates (Corning, product #3904) in 100 microliters of complete DMEM cell culture media [DMEM (Life Technologies, product #11960-051) media supplemented with 10% FBS (Hyclone, catalog #SH30071.03), antimycotic/antibiotic (Life Technologies, product #15240-062), and Glutamax (Life Technologies, product #35050-061)] at 1,000 (HEK293) or 5,000 (HepG2) cells per well. Cells were allowed to attach and grow overnight, after which compounds are added at various concentrations. Cell viability was assessed 96 hrs after compound addition with CellTiter-Glo reagent (Promega, catalog #G7570) according to manufacturer's protocol and measurement on a Pherastar luminescence plate reader (BMG Labtech).
To determine the effect of WFS1 depletion on compound mediated inhibition of cell viability, parental HepG2 cells and HepG2 cells where WFS1 was deleted by CRISPR/Cas9 were exposed to increasing concentrations of either Compound 136 or Compound 253 for 96 hours after which time viability was determined using Cell Titer Glo reagent (Promega). […] The IC50s for the viability of both the HepG2 parental and WFS1 knockout cells are summarized in Table 47: A<0.5 μM; 0.5 μM≤<2.0 μM; 2.0 μM≤C<10.0 μM; D≥[…].

[4] = HepG2 WFS1 knockout, read-out: HepG2 WFS1 KO viability

SMILES	Ki [2] [µM]	IC50 [3, 4] [µM]	inhibition in vivo at 100 mg/kg ([1]; 336 h, treatment day 14) [%]	other results
Cc1nc(N[C@@H]2CC[C@@H](Oc3cc(F)c(F)c(F)c3)C2)nc2c1N(C)C(=O)[C@H](C)N2C [Compound 272, (S)-4,5,7,8-tetramethyl-2-(((1R,3R)-3-(3,4,5-trifluorophenoxy)cyclopentyl)amino)-7,8-dihydropteridin-6(5H)-one]	–	–	77.9	–
Cc1nc(NCc2cnn(Cc3ccc(F)cc3)c2)nc2c1N(C)C(=O)[C@H](C)N2C [Compound 1, (7S)-2-(((1-(4-fluorobenzyl)-1H-pyrazol-4-yl)methyl)amino)-4,5,7,8-tetramethyl-7,8-dihydropteridin-6(5H)-one]	> 4	≥ 10	–	inhibition in vivo at 200 mg/kg ([1]; 456 h, 200 mpk bid, treatment day 19): 94.5%
Cc1nc(NCc2cnn(Cc3ccc(F)nc3)c2)nc2c1NC(=O)[C@H](C)N2C [Compound 77]	–	–	98.5	–
Cc1nc(NCc2cnn(CC3CCC3)c2)nc2c1N(C)C(=O)[C@H](C)N2C [Compound 7, (7S)-2-(((1-(cyclobutylmethyl)-1H-pyrazol-4-yl)methyl)amino)-4,5,7,8-tetramethyl-7,8-dihydropteridin-6(5H)-one]	> 4	≥ 10	–	–
Cc1nc(N(C)Cc2cnn(Cc3ccc(C(F)(F)F)nc3)c2)nc2c1NC(=O)[C@H](C)N2C [Compound 403, (7S)-4,7,8-trimethyl-2-(methyl((1-((6-(trifluoromethyl)pyridin-3-yl)methyl)-1H-pyrazol-4-yl)methyl)amino)-7,8-dihydropteridin-6(5H)-one]	–	–	–	inhibition in vivo at 100 mg/kg ([1]; 288 h, treatment day 12): 103%
Cc1nc(NCc2cnn(CCc3ccc(F)cc3)c2)nc2c1N(C)C(=O)[C@H](C)N2C [Compound 8, (7S)-2-(((1-(4-fluorophenethyl)-1H-pyrazol-4-yl)methyl)amino)-4,5,7,8-tetramethyl-7,8-dihydropteridin-6(5H)-one]	> 4	≥ 10	–	–
Cc1nc(NCc2cnn(CCc3ccc(F)cc3)c2)nc2c1NC(=O)[C@H](C)N2C [Compound 6, (7S)-2-(((1-(4-fluorophenethyl)-1H-pyrazol-4-yl)methyl)amino)-4,7,8-trimethyl-7,8-dihydropteridin-6(5H)-one]	> 4	≥ 10	–	–
Cc1cc(F)ncc1Cn1cc(CNc2nc(C)c3c(n2)N(C)[C@@H](C)C(=O)N3)cn1 [Compound 94, (7S)-2-(((1-((6-fluoro-4-methylpyridin-3-yl)methyl)-1H-pyrazol-4-yl)methyl)amino)-4,7,8-trimethyl-7,8-dihydropteridin-6(5H)-one]	–	–	94.5	–
COc1cc(F)ccc1Cn1cc(CNc2nc(C)c3c(n2)N(C)[C@@H](C)C(=O)N3)cn1 [Compound 83, (7S)-2-(((1-(4-fluoro-2-methoxybenzyl)-1H-pyrazol-4-yl)methyl)amino)-4,7,8-trimethyl-7,8-dihydropteridin-6(5H)-one]	–	–	97.2	–
CC(=O)N(Cc1cnn(Cc2ccc(C(F)(F)F)nc2)c1)c1nc(C)c2c(n1)N(C)[C@@H](C)C(=O)N2 [Compound 405, (7S)-N-((1-((6-(trifluoromethyl)pyridin-3-yl)methyl)-1H-pyrazol-4-yl)methyl)-N-(4,7,8-trimethyl-6-oxo-5,6,7,8-tetrahydropteridin-2-yl)acetamide]	–	–	–	inhibition in vivo at 100 mg/kg ([1]; 288 h, treatment day 12): 91%

Further lines, with some results ahead:

Ki [2] [µM]	IC50 [3, 4] [µM]	SMILES	inhibition in vivo at 100 mg/kg ([1]; 336 h, treatment day 14) [%]	other results
> 4	–	Cc1nc(N[C@H]2C[C@H](Oc3cc(F)c(F)c(F)c3)C2)nc2c1N(C)C(=O)[C@H](C)N2C [Compound 253, (7S)-4,5,7,8-tetramethyl-2-((trans-3-(3,4,5-trifluorophenoxy)cyclobutyl)amino)-7,8-dihydropteridin-6(5H)-one]	96.6	IC50 ([3]; cell viability, HepG2 WFS1 KO, Cell Titer Glo, read-out: IC50): 4.4 µM; IC50 ([3]; cell viability, HepG2 WFS1 KO, read-out: IC50 class): 2 to 10 µM; shift in IC50 on depletion of WFS1 from HepG2 cells ([3]; cell viability, WFS1 KO vs parental HepG2, 96 hours): greater than 5 fold
> 4	≥ 10	CC[C@H]1C(=O)Nc2cnc(NCc3cnn(Cc4ccc(F)cc4)c3)nc2N1C [Compound 9, (7S)-7-ethyl-2-(((1-(4-fluorobenzyl)-1H-pyrazol-4-yl)methyl)amino)-8-methyl-7,8-dihydropteridin-6(5H)-one]	–	–
> 4	≥ 10	Cc1nc(N[C@H]2C[C@@H](Oc3cc(F)c(F)c(F)c3)C2)nc2c1NC(=O)[C@H](C)N2C [Compound 247, (7S)-4,7,8-trimethyl-2-((cis-3-(3,4,5-trifluorophenoxy)cyclobutyl)amino)-7,8-dihydropteridin-6(5H)-one]	–	–
> 4	–	Cc1nc(N[C@H]2C[C@H](Oc3cc(F)c(F)c(F)c3)C2)nc2c1NC(=O)[C@H](C)N2C [Compound 246, (7S)-4,7,8-trimethyl-2-((trans-3-(3,4,5-trifluorophenoxy)cyclobutyl)amino)-7,8-dihydropteridin-6(5H)-one]	–	inhibition in vivo at 100 mg/kg ([1]; 264 h, treatment day 11): 82.6%
> 4	–	COc1c(F)cc(Cn2cc(CNc3nc(C)c4c(n3)N(C)[C@@H](C)C(=O)N4)cn2)cc1F [Compound 46, (7S)-2-(((1-(3,5-difluoro-4-methoxybenzyl)-1H-pyrazol-4-yl)methyl)amino)-4,7,8-trimethyl-7,8-dihydropteridin-6(5H)-one]	93.3	–
–	≥ 10	Cc1nn(C)cc1Cn1cc(CNc2nc(C)c3c(n2)N(C)[C@@H](C)C(=O)N3)cn1 [Compound 139, (7S)-2-(((1-((1,3-dimethyl-1H-pyrazol-4-yl)methyl)-1H-pyrazol-4-yl)methyl)amino)-4,7,8-trimethyl-7,8-dihydropteridin-6(5H)-one]	–	–
–	≥ 10	Cc1ncc(Cn2cc(CNc3nc(C)c4c(n3)N(C)[C@@H](C(C)C)C(=O)N4)cn2)cc1F [Compound 425, (7S)-2-(((1-((5-fluoro-6-methylpyridin-3-yl)methyl)-1H-pyrazol-4-yl)methyl)amino)-7-isopropyl-4,8-dimethyl-7,8-dihydropteridin-6(5H)-one]	–	–
–	≥ 10	Cc1nc(NCc2cnn(Cc3cncc(F)c3)c2)nc2c1NC(=O)[C@H](C(C)C)N2C [Compound 415, (7S)-2-(((1-((5-fluoropyridin-3-yl)methyl)-1H-pyrazol-4-yl)methyl)amino)-7-isopropyl-4,8-dimethyl-7,8-dihydropteridin-6(5H)-one]	–	–
–	≥ 10	Cc1nc(NCc2cnn(Cc3ccc(Cl)nc3)c2)nc2c1NC(=O)[C@H](C(C)C)N2C [Compound 409, (7S)-2-(((1-((6-chloropyridin-3-yl)methyl)-1H-pyrazol-4-yl)methyl)amino)-7-isopropyl-4,8-dimethyl-7,8-dihydropteridin-6(5H)-one]	–	–
